From patent publication US11229629B2, “Inhibitors of mitochondrial fission” (Queen's University at Kingston, priority 2019, dated 2022)

Columns and labels:
[1] = tested on: SK-MES-1; assay: Cell proliferation assay (EdU) in SK-MES-1 cells; assay type: cell-based; settings: 0.5 μM of Drpitor1a
Method: (§1) Cell proliferation assay: Cell proliferation was measured 48 hours post compound treatment using Click-iT® EdU Alexa Fluor® 488 Imaging Kit (available from Thermo Fisher Scientific) according to manufacturer's protocol. 1.0×10^5 cells were seeded per well in 6-well plates and compounds were added 24 hours after seeding. EdU was allowed to incorporate 10 hours before flow cytometry. Percentage of cells incorporated with EdU in each group was determined using SONY SH800S flow cytometer and compared between control group and treatment groups.

[2] = tested on: mutant mouse Drp1 K38A in siDrp1-treated A549 cells; assay: MFC in A549 cells transfected with siDrp1+mDrp1 K38A; settings: FIG. 5A
[3] = tested on: PAH PASMC cell lines; assay: Cell proliferation of PAH PASMC cell lines; assay type: cell-based, human; parameters: unit: % EdU-positive cells; settings: 1.0 μM of Drpitor1a
Method: as §1

[4] = tested on: mitochondrial complex I; assay: Mitochondrial complex I activity in A549 cells; assay type: cell-based, human; settings: mdivi-1 50 μM, Drpitor1a 0.5 μM; FIG. 5C
[5] = tested on: A549 cells; assay: Mitochondrial morphology analysis (MFC, machine learning) in A549 cells; settings: for Concentration (dose) at which mitochondrial fission was inhibited: in vitro screening
Method: Cell Culture: A549 cells were purchased from the American Type Culture Collection (ATCC) and were cultured in Dulbecco's Modified Eagle's Medium (DMEM) (D5796, Sigma Aldrich) supplemented with 10% fetal bovine serum (FBS). Cells were cultured at 37° C. in a humidified incubator balanced with 5% CO2.
Compound solution preparation for in vitro experiments: Candidate compounds were dissolved in anhydrous Dimethyl Sulfoxide (DMSO) (available from Sigma Aldrich), filtered by a 0.20 μm PTFE filter and added to culture medium to make a working solution at designated concentrations. Final concentration of DMSO in culture medium was s 0.1%. Same volume of DMSO was used as control.
(§4) Higher MFC indicates more fragmented mitochondrial network.
Mitochondrial morphology was used as an indicator of Drp1 activity in the in vitro screening, such that Drp1 inhibitors would be identified by an increase in fusion.

[6] = tested on: SW 900; assay: Cell proliferation assay (EdU) in SW 900 cells; assay type: cell-based; settings: 0.5 μM of Drpitor1a
Method: as §1

[7] = tested on: MCF7; assay: Colony formation assay in MCF7 cells; assay type: cell-based; settings: 0.5 μM of Drpitor1a
Method: (§2) Colony formation assay: Cells were seeded in 6-well plates and optimal concentrations of compounds were added 24 hours after seeding. After 48 hours of compound treatment, cells were disassociated with 0.25% trypsin-EDTA (25200114, Gibco, Burlington, ON, Canada) and reseeded in a 48-well plate at a density of 200 live cells/mL. After 7-10 days of culture, cells were fixed with 4% paraformaldehyde and then stained with 1% crystal violet (V5265, Millipore Sigma, Etobicoke, ON, Canada). Images of cell colonies were taken by a Panasonic LX3 digital camera (Kadoma, Osaka, Japan).

[8] = tested on: U373 (Glioblastoma cells); assay: Cell proliferation of U373 cells; assay type: cell-based; settings: 0.15~2.5 μM of Drpitor1a, Ctrl = 87.2
Method: as §1

[9] = tested on: SK-LU-1; assay: Cell proliferation assay (EdU) in SK-LU-1 cells; assay type: cell-based; settings: 0.5 μM of Drpitor1a
Method: as §1

[10] = tested on: MCF7; assay: Cell proliferation assay (EdU) in MCF7 cells; assay type: cell-based; settings: 0.5 μM of Drpitor1a
Method: as §1

[11] = tested on: Daoy cells (Medulloblastoma cells); assay: Cell proliferation of Daoy cells; assay type: cell-based; settings: 0.15~2.5 μM of Drpitor1a, Ctrl = 1
Method: as §1

[12] = tested on: U87 (Glioblastoma cells); assay: Cell proliferation of U87 cells; assay type: cell-based; settings: 0.15~2.5 μM of Drpitor1a, Ctrl = 1
Method: as §1

[13] = tested on: SK-LU-1; assay: Colony formation assay in SK-LU-1 cells; assay type: cell-based; settings: 0.5 μM of Drpitor1a
Method: as §2

[14] = tested on: SK-MES-1; assay: Colony formation assay in SK-MES-1 cells; assay type: cell-based; settings: 0.5 μM of Drpitor1a
Method: as §2

[15] = tested on: A549; assay: Cell proliferation assay (EdU) in A549 cells; assay type: cell-based, human; settings: for Cell proliferation: A549, 0.5 μM of Drpitor1a, 48 hours; for Percentage of EdU incorporated cells: mdivi-1 50 μM, Drpitor1 0.75 μM, Drpitor1a 0.5 μM, FIG. 6A
Method: as §1

[16] = tested on: A549; assay: Colony formation assay in A549 cells; assay type: cell-based, human; settings: 0.5 μM of Drpitor1a
Method: as §2

[17] = tested on: A549; assay: Apoptosis assay (Annexin V/PI) in A549 cells; assay type: cell-based, human; settings: 1.0 μM of Drpitor1, 0.25-0.5 μM of Drpitor1a, 48 hours
Method: Apoptosis assay: Cell apoptosis was determined by the Annexin V+ propidium iodide (PI) method using Alexa Fluor 488 Annexin V/Dead Cell Apoptosis Kit (available from ThermoFisher Scientific). A549 cells were collected 48 hours after compound treatment. Percentage of Annexin V (+) and PI (+) cells was determined using SONY S[…] flow cytometer and compared between control group and treatment groups.

[18] = tested on: Drp1 knocked-down A549 cells; assay: MFC in Drp1 knocked-down A549 cells with FCCP-induced fission; assay type: cell-based, human; settings: FIG. 5B
Method: as §4
Carbonyl cyanide-4-(trifluoromethoxy) phenylhydrazone (FCCP) was added, a mitochondrial oxidative phosphorylation uncoupler, to cells treated with siDrp1.

[19] = tested on: SK-LU-1; assay: Apoptosis assay (Annexin V/PI) in SK-LU-1 cells; assay type: cell-based; settings: 0.25-0.5 μM of Drpitor1a
Method: (§5) Apoptosis assay: Cell apoptosis was determined by the Annexin V+ propidium iodide (PI) method using Alexa Fluor 488 Annexin V/Dead Cell Apoptosis Kit (available from ThermoFisher Scientific). A549 cells were collected 48 hours after compound treatment. Percentage of Annexin V (+) and PI (+) cells was determined using SONY S[MUT] flow cytometer and compared between control group and treatment groups.

[20] = tested on: SK-MES-1; assay: Mitochondrial fragmentation count in SK-MES-1 cells; assay type: cell-based; settings: 0.1-0.5 μM of Drpitor1a
[21] = tested on: A549 cells xenotransplant tumor; assay: In vivo xenotransplant tumor model of human lung cancer; parameters: species or system mouse; settings: 10 mg/kg intraperitoneally and intratumorally; end of study
Source text: (§3) In vivo xenotransplant tumor model: BALB/c Rag2^−/−; IL2Rgc^−/− double knock out mice were kindly provided by Dr. M Ito, Central Institute for Experimental Animals, Kawasaki, Japan and were bred in the Animal Facility at Queen's University. Animal protocols were approved by the University Animal Care Committee of Queen's University. A xenotransplant mouse model of human lung cancer was established by subcutaneous injection of A549 cells ([…] per tumor) at the back flank regions. […] Equal volumes of solvents were injected as control. […] Tumor length and width was measured every 2 days. Animals were euthanized with cervical dislocation under 5% isoflurane inhalation followed by tumor collection. Blood samples were collected for liver and kidney toxicity studies just before euthanasia.

[22] = tested on: SW 900; assay: Mitochondrial fragmentation count in SW 900 cells; assay type: cell-based; settings: 0.1-0.5 μM of Drpitor1a
[23] = tested on: MCF7; assay: Mitochondrial fragmentation count in MCF7 cells; assay type: cell-based; settings: 0.1-0.5 μM of Drpitor1a
[24] = tested on: right ventricle ischemia-reperfusion injury; settings: 0.5 μM in perfusate; ex vivo rat heart
Method: Briefly, Sprague-Dawley rats were anesthetized with an intraperitoneal injection of ketamine (75 mg/kg)/xylazine (10 mg/kg). The hearts were harvested and perfused with oxygenated Krebs' solution at 37° C. at a constant pressure of 85 cmH2O on a Langendorff apparatus. RV pressure was measured by a fluid-filled balloon placed in the RV connected to a pressure transducer (Harvard Apparatus; Holliston, Mass., USA). High fidelity signals were recorded using PowerLab 8/35 data acquisition hardware and analyzed using LabChart Pro 8 software (AD Instruments; Colorado Springs, Colo., USA).
IR protocol: Hearts were stabilized for 10 minutes before the IR experiment. Two consecutive cycles of 20 minutes of global ischemia followed by 20 minutes of reperfusion were performed. […] Same volume of DMSO was used as a negative control for test compound. […]
Mitochondrial superoxide imaging and quantification: RV tissues collected from Langendorff RV-IR experiments were cut into pieces of 1×1×1 mm^3 and were incubated with 5 μM of MitoSOX™ Red mitochondrial superoxide indicator (available from Molecular Probes™) at 37° C. for 15 minutes. […] Intensity of the MitoSOX™ Red mitochondrial superoxide indicator was analyzed by the Leica LAS X software.
Test compound was added to the perfusate prior to IR. […] After IR, RV myocardium was collected and mitochondrial superoxide was measured.

[25] = tested on: SK-MES-1; assay: Apoptosis assay (Annexin V/PI) in SK-MES-1 cells; assay type: cell-based; settings: 0.25-0.5 μM of Drpitor1a
Method: as §5

[26] = tested on: SW 900; assay: Apoptosis assay (Annexin V/PI) in SW 900 cells; assay type: cell-based; settings: 0.25-0.5 μM of Drpitor1a
Method: as §5

[27] = Liver and kidney toxicity (blood samples), body weight in xenotransplant mice
Source text: as §3

[28] = tested on: SK-LU-1; assay: Mitochondrial fragmentation count in SK-LU-1 cells; assay type: cell-based; settings: 0.1-0.5 μM of Drpitor1a
[29] = 10 mg/kg of Drpitor1a, blood before euthanasia

Row | Compound | Cell proliferation [1] | MFC in cells transfected with siDrp1+mDrp1 K38A [2] | Cell proliferation ([3]; PAH PASMC cell line P1) | Cell proliferation ([3]; PAH PASMC cell line P3) | Cell proliferation ([3]; PAH PASMC cell line P7) | Mitochondrial complex I activity in A549 cells [4] | Concentration giving the same degree of inhibition of mitochondrial fission (potency) ([5]; A549 cells) | Concentration (dose) at which mitochondrial fission was inhibited ([5]; A549 cells) | Cell proliferation [6] | Colony number [7] | Cell proliferation [8] | Cell proliferation [9] | Cell proliferation [10] | Cell proliferation [11] | Cell proliferation [12] | Colony number [13] | Colony number [14] | Cell proliferation [15] | Percentage of EdU incorporated cells [15] | Colony number [16] | also measured
1 | COc1cc(-n2c(=S)[nH]c3ccccc3c2=O)c(Cl)cc1Cl [mdivi-1, mitochondrial division inhibitor 1, reference compound] | 24.97 ± 3.38 | this reduction was not seen | 7.38 ± 0.1762 | 0.3567 ± 0.04372 | 7.78 ± 0.1882 | no significant change | 25 µM | 20 µM | 50.1 ± 0.7211 | 7.167 ± 0.7491 | 65.43 ± 0.06667 | 29.5 ± 1.652 | 8.217 ± 1.256 | 0.8464 ± 0.008105 | 0.9552 ± 0.01912 | 2.5 ± 0.4282 | 5.5 ± 0.5627 | 32.43 ± 1.481 | significantly reduced | 0.5 ± 0.3416 | Apoptosis [17]: 15.3 ± 0.5213
2 | N#Cc1cc2c3ccccc3[nH]c2c2ccccc12 [Compound 13] | – | – | – | – | – | – | – | 20 µM | – | – | – | – | – | – | – | – | – | – | – | – | Inhibition of mitochondrial fission (reduction in MFC) in in vitro screening ([5]; A549 cells, 17 compounds screened, FIG. 1): most significant inhibition of mitochondrial fission
3 | N#CC(C#N)=NNc1ccc(OC(F)(F)F)cc1 [FCCP, carbonyl cyanide-4-(trifluoromethoxy)phenylhydrazone, reference compound] | – | – | – | – | – | – | – | – | – | – | – | – | – | – | – | – | – | – | – | – | Mitochondrial fission in Drp1 knocked-down A549 cells [18]: caused mitochondrial fission
4 | O=C1c2ccncc2C(=O)c2c1[nH]c1ccccc21 [Drpitor1a] | 5.523 ± 0.3613 | this reduction was not seen | 3.367 ± 0.3335 | 0.7167 ± 0.05608 | 9.68 ± 0.563 | no significant change | 0.5 µM | – | 28.37 ± 0.3712 | 0 ± 0 | 45.33 ± 0.2728 | 5.04 ± 0.5525 | 3.437 ± 0.2325 | 0.7078 ± 0.005519 | 0.1084 ± 0.001408 | 0.6667 ± 0.3333 | 0 ± 0 | 46 ± 0.8505 | significantly reduced | 1.5 ± 0.2236 | Apoptosis [19]: 3.6 ± 0.2292; Percentage area of elongated (filamentous) mitochondria, machine learning ([5]; FIG. 3B): increased percentage area of elongated mitochondria; MFC on adding compound to siDrp1+FCCP treatment ([18]; A549, Drpitor1a 0.25 μM): reduction of MFC was not seen; MFC [20]: 0.2291 ± 0.02596; Reduction in tumor volume [21]: 43.8%; Reduction in tumor weight [21]: 43.9%; MFC [22]: 0.3345 ± 0.0309; MFC [23]: 0.5479 ± 0.05737; Mean mitochondrial volume of cardiomyocytes during RV-IR [24]: increased mean mitochondrial volume; MitoSOX intensity (mitochondrial superoxide) in RV during IR [24]: lower MitoSOX intensity; Dose dependence of effect on cell proliferation [15]: dose-dependent; Apoptosis [25]: 2.464 ± 0.131; Apoptosis [26]: 5.686 ± 0.1402; Albumin [27, 29]: 26.75 ± 0.9465 g/L; BUN [27, 29]: 6.225 ± 1.186 mmol/L; Cholesterol [27, 29]: 4.188 ± 0.3317 mmol/L; Total bilirubin [27, 29]: 2.5 ± 0.324 µmol/L; Body weight ([27]; 10 mg/kg, 22 days of therapy): did not reduce body weight; MFC [28]: 0.3367 ± 0.03623; Apoptosis [17]: 25.06 ± 0.4675
